Results from US12622975B2, “Peptide-conjugated prodrugs” (priority 2019, dated 2026).
≈ marks a conversion by molar mass, not a printed value. Entries after “also recorded” stand apart in the source; their conditions may differ.

Key:
[1] = system: esterase (bioH, yjfP, frsA, ybfF, yfbB, ypfH, yeiG, or yqiA) deletion mutants of E. coli; assay type: cell-based
Experimental: Bacteria culture and inhibitory activity assay: Single esterase (BioH, YjfP, FrsA, YbfF, YfbB, YqiA, YeiG, or and YpfH) deletion mutants were purchased from Dharmacon Horizon Discovery (Cambridge, United Kingdom). The K12 wild-type E. coli strain (MG1655) was cultured in autoclaved LB medium (25 g/L LB broth/water) in a shaker-incubator overnight to stationary growth phase, and then sub-cultured in the same medium after dilution to OD600 of 0.05. Compounds were added at different concentrations. The mixture of bacteria and compounds were placed (200 μL/well) into 96-well clear flat bottom plates. In all plates, the OD600 was measured before and after 16 hour incubation at 37° C.
Bacteria culture and inhibitory activity assay: Single esterase (bioH, frsA, ybfF, yfbB, yqiA, yeiG, or ypfH) deletion mutants, bacterial transporter (ydgR, fepA and ompF) deletion mutants and the efflux pump (acrA) deletion mutant were all purchased from Dharmacon Horizon Discovery (Cambridge, United Kingdom). The K12 wild-type E. coli strain (MG1655) was cultured in autoclaved LB medium (25 g/L LB broth/water) in a shaker-incubator overnight to stationary growth phase, and then sub-cultured in the same medium after dilution to OD600 of 0.05. Compounds were added at different concentrations. The mixture of bacteria and compounds were placed (200 μL/well) into 96-well clear flat bottom plates. In all plates, the OD600 was measured before and after a 16 hour incubation at 37° C.

[2] = system: YdgR transporter knockout mutants of E. coli; test: Antibacterial activity against YdgR transporter knockout mutant; assay type: cell-based; settings: YdgR mutant versus wild-type E. coli
Experimental: (§1) Bacteria culture and inhibitory activity assay: Single esterase (BioH, YjfP, FrsA, YbfF, YfbB, YqiA, YeiG, or and YpfH) deletion mutants were purchased from Dharmacon Horizon Discovery (Cambridge, United Kingdom). […] Compounds were added at different concentrations.
To verify whether bacterial oligopeptide transporters are involved in the uptake of CLsuGG, the activities of CLsuGG against the YdgR mutant and wild-type E. coli was compared (FIG. 4A). The deletion of YdgR, an inner membrane (IM) proton-coupled transporter for uptaking di- and tripeptides (Prabhala et al., “The Prototypical Proton-Coupled Oligopeptide Transporter YdgR from Escherichia coli Facilitates Chloramphenicol Uptake into Bacterial Cells,” J. Biol. Chem. 293(3):1007-1017 (2018), which is hereby incorporated by reference in its entirety), indeed rescues the bacteria, i.e., increasing cell viability for about 10%.

[3] = system: wild type E. coli strain (K-12); test: Bacteria culture and inhibitory activity assay (MIC); assay type: cell-based
Experimental: as §1
Compounds were added at different concentrations.

HepG2 cells = test: Cell viability assay (MTT), HepG2; assay type: cell-based; settings: 20 μM, 24 hours
Water solubility = assay type: physicochemical
carboxylesterase (CES) = test: Hydrolysis assay with exogenous carboxylesterase; assay type: in vitro ADME, porcine; settings: CES 0.1 U/mL
Excerpt: Experimental materials and instruments. All the solvents and chemical reagents were used directly as received from the commercial sources without further purification unless otherwise stated. Carboxylesterase (CES) from porcine liver was purchased from Sigma-Aldrich (lyophilized powder, >15 units/mg solid; Unit definition: One unit will hydrolyze 1.0 μmole of ethyl butyrate to butyric acid and ethanol per min at pH 8.0 at 25). CLsuGG, CLsuG, CLsuGGG were purified with Agilent 1100 Series Liquid Chromatography system, equipped with an XTerra C18 RP column and Variable Wavelength detector.
Hydrolysis assay: Wild-type E. coli strains (K12) were harvested by centrifugation and the cell pellets were lysed using a sonic device. After centrifugation, the supernatant was collected and the proteinase inhibitor was added in the E. coli lysate. The concentration of E. coli lysate was normalized by the fluorescence intensity of 5-carboxyfluorescein diacetate (CFDA). […] Then the fluorescence was tested to draw a fluorescence-concentration dependent curve for figuring out the concentration of E. coli lysates. Solutions of CLsuGG (200 μM) were prepared in pH 7.4 PBS buffer. […] At different time points, the solution was taken out, extracted with an equal volume of butanol, concentrated to dryness, and resuspended with butanol for HPLC analysis. HPLC was performed with Agilent 1100 Series Liquid Chromatograph equipped with an XTerra C18 reverse phase column and Variable Wavelength Detector. The hydrolyzed mixture resuspended in 1 mL of butanol was injected to HPLC mobile phase (0.1% trifluoroacetic acid, the starting ratio: 10% acetonitrile and 90% water). The system was run at a flow rate of 10 mL/min.

HEK293 cells = test: Cell viability assay (MTT), HEK293; settings: 20 μM, 24 hours
HS-5 cells = test: Cell viability assay (MTT), HS-5; assay type: cell-based, human; settings: 24 hours
E. coli (K-12) lysate = test: Hydrolysis assay with E. coli lysate; assay type: in vitro ADME; settings: compound 200 μM
Experimental: (§2) Hydrolysis assay: Wild-type E. coli strains (K12) were harvested by centrifugation and the cell pellets were lysed using a sonic device. After centrifugation, the supernatant was collected and the proteinase inhibitor was added in the E. coli lysate. The concentration of E. coli lysate was normalized by the fluorescence intensity of 5-carboxyfluorescein diacetate (CFDA). Briefly, different concentrations of CES (4 U/mL, 2 U/mL, 1 U/mL, 0.5 U/mL, 0.25 U/mL, 0.125 U/mL, 0.0625 U/mL, 0.03125 U/mL, 0.015625 U/mL and 0 U/mL) and different amount of E. coli lysates were prepared in PBS buffer. Followed by, 25 μM of CFDA was added in and incubated at room temperature for 1 hour. Then the fluorescence was tested to draw a fluorescence-concentration dependent curve for figuring out the concentration of E. coli lysates. Solutions of CLsuGG (200 μM) were prepared in pH 7.4 PBS buffer. CES and E. coli lysate (0.1 U/mL) were added and incubated with above solutions at 37° C. for 24 hours. At different time points, the solution was taken out, extracted with an equal volume of butanol, concentrated to dryness, and resuspended with butanol for HPLC analysis. HPLC was performed with Agilent 1100 Series Liquid Chromatograph equipped with an XTerra C18 reverse phase column and Variable Wavelength Detector. The hydrolyzed mixture resuspended in 1 mL of butanol was injected to HPLC mobile phase (0.1% trifluoroacetic acid, the starting ratio: 10% acetonitrile and 90% water). The system was run at a flow rate of 10 mL/min.
as §2, with “analysis.” for “analysis. HPLC was performed with Agilent 1100 Series Liquid Chromatograph equipped with an XTerra C18 reverse phase column and Variable Wavelength Detector. The hydrolyzed mixture resuspended in 1 mL of butanol was injected to HPLC mobile phase (0.1% trifluoroacetic acid, the starting ratio: 10% acetonitrile and 90% water). The system was run at a flow rate of 10 mL/min.”

[4] = system: double esterase (BioH and YjfP) deletion mutant of E. coli; test: Antibacterial activity against double esterase deletion mutant; assay type: cell-based
Experimental: as §1
To examine the roles of different intrabacterial esterases on the hydrolysis of CLsuGG, the activities of CLsuGG against eight E. coli mutants that have one of bacterial esterase genes (i.e., BioH, YjfP, FrsA, YbfF, YeiG, YfbB, YpfH or YqiA) deleted was measured. […] To confirm the role of intrabacterial esterases, a double mutant E. coli was generated, with the deletion of BioH and YjfP genes (FIGS. 5C-5D). […] These studies confirm that, after CLsuGG enters E. coli, various esterases in bacterial cytoplasm rapidly convert CLsuGG to the active antibiotic agent (i.e., CL).

E. coli K-12 = settings: E. coli K-12, literature values; cited from earlier work

## O=C(O)CNC(=O)CNC(=O)CCC(=O)OCC(NC(=O)C(Cl)Cl)C(O)c1ccc([N+](=O)[O-])cc1 (centres unmarked) [CLsuGG]
[1]
  reduction of antibacterial activity by single esterase gene deletion: slightly
[2]
  increase of cell viability by deletion of YdgR: about 10%
[3]; exogenous CES
  Effect of addition of CES on the MIC value: hardly affected
[3]; wild type E. coli (K-12)
  MIC (μM): 20 µM (≈ 10.7 µg/mL)
  MIC (μg/mL): 10.7 µg/mL (≈ 19.9 µM)
HepG2 cells
  cytotoxicity / cell viability of HepG2 cells: hardly altered the cytotoxicity of CL
Water solubility
  water solubility: soluble
Carboxylesterase (CES)
  time to complete hydrolysis: more than 12 hours
Carboxylesterase (CES); after 2 hours
  conversion: around 70%
Carboxylesterase (CES); compound 200 μM
  apparent first-order rate constant of hydrolysis: -0.443 h⁻¹
HEK293 cells
  cytotoxicity / cell viability of HEK293 cells: hardly altered the cytotoxicity of CL
HS-5 cells; 20 μM
  cytotoxicity / cell viability of HS-5 cells: largely innocuous; also recorded: reduced toxicity
E. coli (K-12) lysate; E. coli lysate 0.1 U/mL, pH 7.4 PBS, 37° C.
  apparent first-order rate constant of hydrolysis: -1.868 h⁻¹
E. coli (K-12) lysate; intrabacterial esterases 0.1 U/mL
  time to complete hydrolysis: ≤ 2 h
[4]
  antibacterial activity relative to the activity against wild type E. coli: 50%

## COc1cc(Cc2cnc(N)nc2N)cc(OC)c1OC [trimethoprim]
E. coli K-12
  MIC: 1 µg/mL (≈ 3.44 µM)
HS-5 cells; around MIC values (0.5 μM)
  cytotoxicity of control compounds against HS-5 cells: relatively low cytotoxicity
